Results reported in patent publication US11730743B2, “Protection of cells from degeneration and treatment of geographic atrophy” (University of Kentucky Research Foundation, priority 2012, dated 2023).

Tests used:
IRAK1/4 = experiment: Western blot of phosphorylated IRAK1/4 in human RPE cells; assay type: cell-based; settings: normalized to Vinculin
Protocol: (§1) Protein abundance and activity. Protein abundance was assessed by Western blot analysis using primary antibodies recognizing Caspase-1 (1:500; Invitrogen), pIRAK1 (1:500; Thermo Scientific), pIRAK4 (1:500, Abbomax, Inc), PYCARD (1:200, Santa Cruz Biotechnology), NLRP3 (1:500, Enzo Life Sciences) and Vinculin (1:1,000; Sigma-Aldrich). Caspase-1 activity was visualized using Caspalux1 E1D2 (OncoImmunin) reagent according to the manufacturer's instructions.
Western blotting. Tissues or cells were homogenized in lysis buffer (10 mM Tris base, pH 7.4, 150 mM NaCl, 1 mM EDTA, 1 mM EGTA, 1% Triton X-100, 0.5% NP-40, protease and phosphatase inhibitor cocktail (Roche)). Protein concentrations were determined using a Bradford assay kit (Bio-Rad) with bovine serum albumin as a standard. Proteins (40-100 μg) were run on NuPAGE Bis-Tris gels (Invitrogen) and transferred to Immun-Blot PVDF membranes (Bio-Rad). Cells were scraped in hot Laemmli buffer (62.5 mM Tris base, pH 6.8, 2% SDS, 5% 2-Mercaptoethanol, 10% Glycerol, 0.01% Bromophenol Blue). Samples were boiled and run on 4-20% NuPAGE Tris-Glycine gels (Invitrogen). […] Protein loading was assessed by immunoblotting using an anti-Vinculin antibody (1:1,000; Sigma-Aldrich). […]

Caspase-3 = Caspase-3 activation in the RPE of wild-type mice; assay type: in vivo; settings: inhibitor intravitreous
Protocol: Drug treatments. siRNAs formulated in siRNA buffer (20 mM KCL, 0.2 mM MgCl2 in HEPES buffer at pH 7.5; Dharmacon) or phosphate buffered saline (PBS; Sigma-Aldrich); the TLR4 antagonist Ultra Pure Rhodobacter sphaeroides LPS (LPS-RS, InvivoGen), a peptide inhibitor of MyD88 homodimerization IMG-2005 (IMGENEX), control inhibitor (IMGENEX), recombinant IL-18 (Medical & Biological Laboratories), neutralizing rat antibodies against mouse IL-1β (IMGENEX), neutralizing rat antibodies against mouse IL-18 (Medical & Biological Laboratories), isotype control IgGs (R&D Systems or eBioscience as appropriate), Caspase-1 inhibitor Z-WEHD-FMK (R&D Systems), Caspase-3 inhibitor Z-DEVD-FMK (R&D Systems), Caspase control inhibitor Z-FA-FMK (R&D Systems), (2R,4R)-APDC (Enzo Life Sciences), Glipizide (Sigma-Aldrich), Glyburide (Sigma-Aldrich), and P2X7 receptor antagonist A438079 (Tocris Bioscience) were dissolved in phosphate buffered saline (PBS; Sigma-Aldrich) or dimethyl sulfoxide (DMSO; Sigma-Aldrich), and injected into the vitreous humor in a total volume of 1 μL with a 33-gauge Exmire microsyringe (Ito Corporation). […] As a control, Luc siRNA-chol (17+2 nt) was used with identical dosages.
Caspase-3 activity. The caspase-3 activity was measured using Caspase-3 Fluorimetric Assay (R&D Systems) according to the manufacturer's instruction.

wild-type mice = experiment: Laser-induced choroidal neovascularization; assay type: in vivo; settings: intravitreous injection
Caspase-1 = target: T1, Caspase-1 (Homo sapiens, UniProt P29466); experiment: Caspase-1 activation in cultured cells (western blot p20, Caspalux1 substrate cleavage); assay type: cell-based; settings: human RPE cells
T1 construct: endogenous in cells; host or cells: primary human RPE cells; also THP-1 and HeLa cells
T1 sequence (P29466 120-297 limits assumed): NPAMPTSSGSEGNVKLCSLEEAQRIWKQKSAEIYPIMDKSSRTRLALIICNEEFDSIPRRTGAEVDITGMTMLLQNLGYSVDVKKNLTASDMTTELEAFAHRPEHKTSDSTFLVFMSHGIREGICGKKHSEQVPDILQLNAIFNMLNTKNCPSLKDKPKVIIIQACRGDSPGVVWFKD
T1 sequence (P29466 317-404 limits assumed): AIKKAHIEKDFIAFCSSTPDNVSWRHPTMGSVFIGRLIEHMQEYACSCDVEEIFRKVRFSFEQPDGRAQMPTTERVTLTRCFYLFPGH
Protocol: as §1
Western blotting. Tissues or cells were homogenized in lysis buffer (10 mM Tris base, pH 7.4, 150 mM NaCl, 1 mM EDTA, 1 mM EGTA, 1% Triton X-100, 0.5% NP-40, protease and phosphatase inhibitor cocktail (Roche)). Protein concentrations were determined using a Bradford assay kit (Bio-Rad) with bovine serum albumin as a standard. Proteins (40-100 μg) were run on NuPAGE Bis-Tris gels (Invitrogen) and transferred to Immun-Blot PVDF membranes (Bio-Rad). Cells were scraped in hot Laemmli buffer (62.5 mM Tris base, pH 6.8, 2% SDS, 5% 2-Mercaptoethanol, 10% Glycerol, 0.01% Bromophenol Blue). Samples were boiled and run on 4-20% NuPAGE Tris-Glycine gels (Invitrogen). The transferred membranes were blocked for 1 h at RT and incubated with antibodies against human Caspase-1 (1:500; Invitrogen), mouse Caspase1 (1:500; MBL), NLRP3 (1:1000; Enzo Life Sciences), PYCARD (1:1000, RayBiotech), phospho-IRAK1 (S376) (1:500, Thermo Scientific), phospho-IRAK4 (T345) (1:500, AbboMax), DICER1 (1:2,000; Bethyl), MyD88 (1:1,000; Cell Signaling), and mouse IL-18 (1:200; MBL) at 4° C. overnight. Protein loading was assessed by immunoblotting using an anti-Vinculin antibody (1:1,000; Sigma-Aldrich). The secondary antibodies were used (1:5,000) for 1 h at RT. […]
Caspase-1 activity. […] Caspalux1E1D2 signal was quantified reading the fluorescence (excitation 552 nm, emission 580 nm) using a Synergy 4 reader (Biotek). Quantification of fluorescence from images was performed by converting images into grayscale in Adobe Photoshop CS5, and measuring the integrated density of black and white images using ImageJ software (NIH) (Bogdanovich et al., 2008).

Substance: MyD88 inhibitory peptide: peptide inhibitor of MyD88 homodimerization IMG-2005 (IMGENEX)
- Alu RNA-induced phosphorylation of IRAK1/4 (IRAK1/4): reduced
- Alu RNA-induced Caspase-3 activation in the RPE (Caspase-3): inhibited
- laser-induced choroidal neovascularization (wild-type mice): reduced
- Alu RNA-induced fluorescent substrate cleavage (Caspase-1 activity) (Caspase-1; Caspalux1): did not reduce
- Alu RNA-induced Caspase-1 cleavage (p20 subunit) (Caspase-1; western blot): did not reduce
